Results from patent publication US20060052421A1, “Conjugation agent” (Eastman Kodak Company, priority 2004, published 2006).

How the values were obtained:
[1] = Aqueous stability: lifetime of the non-bonded conjugation agent (hydrolysis), followed by HPLC; assay type: physicochemical; details: Table 2, neutral (pH 7) aqueous phosphate buffer, time for loss of about 66%
Experimental: (§1) The measures of thiol reactivities, thiol chemoselectivities, and aqueous stabilities were determined by the rate constants for the corresponding processes, i.e., relative rate constants for reaction with thiol-containing groups (thiol reactivity), the ratio of thiol to amine rate constants (chemoselectivity for thiol-containing groups), and the rate constant for decomposition of the non-bonded conjugation agent in an aqueous environment (aqueous stability). Equations used in the interpretation of kinetic experiments may be found in J. H. Espenson, Chemical Kinetics and Reaction Mechanisms; McGraw-Hill: New York, 1981.
(§2) The general structure of the conjugation agents used in Example 1 is shown below in formula V, and details of the structure for each conjugation agent are provided in Table 1. […] The selectivity is the ratio of krel(MESNA)/krel(Lys). The lifetime (τ) of a conjugation agent was measured as the time required for loss of about 66% of the starting amount in the solution of 80% phosphate buffer (pH 7)/20% acetonitrile. […] The progress of the reactions was followed by high performance liquid chromatography (HPLC) for up to 1 week. For lifetimes longer than about one week, the values were estimated based on the observed extent of decomposition, where possible. Conjugates labeled “I” are inventive; those labeled “C” are comparative. [drawing 21]
Selectivity values were generated using the lowest detection limit of the equipment as the value of krel(Lys).
(§3) The hydrolytic stability data was determined as the lifetime (r) as defined above, but in neutral (pH 7) aqueous phosphate buffer. Formulas for comparative conjugation agents C4-C10, and inventive conjugation agents I2-I6, are shown below. [drawing 22] [drawing 23]

[2] = Thiol reactivity: substitution reaction of the conjugation agent with MESNA, followed by HPLC; details: for krel (MESNA): Table 2, water soluble conjugation agents, determined as for Table 1
Experimental: as §1
For the reactivity measurements, […] (MESNA) was used as the thiol-containing target, and lysine (Lys) was used as the amine target. The relevant reaction sequences are shown below, where LG is a leaving group, such as a halide, or alternatively a leaving group of the invention (Sx—Rs), such as an N-ethylmercaptotetrazolyl (EMT) group. All reactions were carried out at standard temperature and pressure. [drawing 20]
as §2, §3

[3] = Transamination of I7 with a lysine amide; details: ambient temperature, pH 5.65
Text: Inventive conjugation agent I7 is an example of a conjugation agent designed to sequentially link a substrate containing amine groups, such as a support coated with gelatin, to a target containing thiol groups. [drawing 24] I7 was formed by conversion of the carboxylic acid functionality in I5 into a sulfosuccinate ester via standard procedures shown below in Example 3. This provided a functional group that was reactive towards amine groups. Near quantitative reaction of I7 with a corresponding lysine amide was conducted under transamination conditions (ambient temperature, pH 5.65, bimolecular rate constant for transamination, kbi=3.3 M^−1min^−1). This reaction was carried out under mildly acidic conditions to minimize the known competing hydrolysis of the sulfosuccinate ester. The resultant conjugate was called I8.

Structure (SMILES) | krel (MESNA) [2] | further results
C=CS(=O)(=O)CS(=O)(=O)C=C [C9, bis(vinylsulfonyl)methane, reference compound] | 0.7 | Lifetime [1]: 0.75 days
CCN1C(=O)C=CC1=O [C10, N-ethylmaleimide, reference compound] | 24.3 | Lifetime [1]: 1 days
CCn1nnnc1Sc1cc(C(=O)NCCC(=O)O)c([N+](=O)[O-])cc1[N+](=O)[O-] [I3] | 0.1 | 
CCn1nnnc1Sc1c(C(=O)NCCC(=O)O)cc([N+](=O)[O-])cc1[N+](=O)[O-] [I4] | 0.4 | Reactivity towards thiol-containing groups relative to C6 ([2]; Table 2 data): 100 times
CCn1nnnc1Sc1c([N+](=O)[O-])cc(C(=O)NCCC(=O)O)cc1[N+](=O)[O-] [I5] | 1.0 | krel(thiol, I5)/krel(thiol, 12) ([2]; ratio of Table 2 krel values): about 125
CCn1nnnc1Sc1cc[n+](Cc2ccccc2)cc1 [I6] | 1.9 | Lifetime ([1]; nd = hydrolysis not detected): 24 days
CCn1nnnc1Sc1c([N+](=O)[O-])cc(C(=O)NCCC(=O)ON2C(=O)CC(S(=O)(=O)[O-])C2=O)cc1[N+](=O)[O-].[Na+] (stereo not drawn) [I7] |  | bimolecular rate constant for transamination, kbi [3]: 0.055 M⁻¹ s⁻¹
